Assay results as given in US6414035B1, “Use of polyols in combating yeast infection and polyol preparations for said use” (priority 1997, dated 2002).
Marks after values point to notes of the source that are not given here.

How the values were obtained:
[1] = system: Candida isolate from AIDS patient No 1; test: Sensitivity test of Candida isolate to antifungals; assay type: cell-based; conditions: for sensitivity of the isolate: Candida isolate from AIDS patient No 1
[2] = system: Candida (oral or esophageal candidiasis); test: Open label pilot trial of dietary xylitol intake in AIDS patients with candida mucositis; assay type: in vivo, human; set-up: pain symptoms (score) / Sympt. score: scale not given here
Description: An open label, pilot trial was designed to test the effect of the strategy of dietary xylitol intake in replacement of sugar in patients with candida mucositis. AIDS patients with oral or esophageal candidiasis were selected as subjects for the study because of the frequency and the severity of candida mucositis that they usually develop. Patients with AIDS were considered eligible for the test after their oral or esophageal lesions were documented by microscopic examination of scrapings to be of Candida origin. They were free to continue on any antifungal therapy they might be receiving. Instructions were given to replace the saccharose that they normally take with coffee or tea for crystalline xylitol. Also, to avoid excess sweets like ice cream, cakes. cookies, and artificially flavored drinks that contain glucose. The following was done at baseline and thereafter every 7 days: 1. Pictures of the lesions 2. Tongue imprints in Sabouraud agar 3. Quantitative Candida cultures on unstimulated saliva (CFU/ml) 4. Pain questionnaire (numerical pain scale) 5. Weight 6. Patients kept a daily record of food and drink.

[3] = system: salivary Candida; conditions: diet of human test group during 8 months; cited from earlier work
[4] = system: Candida isolate from AIDS patient No 1; test: Growth of Candida isolate on Muller Hinton agar with sugar or sugar alcohol; assay type: cell-based; conditions: 5 and 10%, FIG. 1
Protocol: The effect of sugar alcohols on the growth of said Candida isolate was tested on Muller Hinton agar with 5 and 10% glucose or 5 and 10% xylitol and a control without sugar.

[5] = system: Candida albicans; test: Growth in vitro of Candida albicans in Muller Hinton broth with sweeteners (optical density 650 nm); assay type: cell-based; conditions: 10% concentration, 12 strains
Description: A test was designed to determine the effect on the growth in vitro of Candida albicans of xylitol, lactitol, sorbitol and aspartame in comparison to glucose and a non-carbohydrate control medium. The tested substances have all been used in the food industry as sweeteners. The sweetness of the substances in the above order is respectively 100%, 40%, 60% and 20.000% of the sweetness of glucose.
12 strains of Candida albicans obtained from patients with AIDS and oral candida mucositis were evaluated. The strains were inoculated on Sabouraud agar plates (20% dextrose) and incubated at room temperature for 48 hours. One colony from each plate was inoculated in Muller Hinton broth (without sweetener) and left for 18 hours at 35° C. The tubes were standardized to Mac Farland 0.5 (5×10^6 CFU/ml) and 100 μl inoculated in triplicate in spectrophotometer tubes containing 3 ml of Muller Hinton broth at final concentrations of glucose (5% and 10%); xylitol (5% and 10%); lactitol (5%, 8.3% and 10%); sorbitol (5%, 10% and 12.5%); and aspartame (0.025% and 0.05%). 3 tubes with Muller Hinton broth without carbohydrate was also inoculated to serve as controls.
Optical densities (650 nm) were determined at 0, 24 and 48 hours time. The average of three readings per time, per sweetener concentration was calculated and recorded. […]

[6] = system: Candida; conditions: cited from earlier work
[7] = system: Candida (recurrent oral candidiasis); test: Pilot study of xylitol replacing dietary saccharose in patients with recurrent oral candidiasis; assay type: in vivo, human
Description: A pilot study was designed to test the effect of xylitol on the clinical course, Candida salivary counts, and antifungal needs of patients with recurrent oral candidiasis. The patients were instructed to replace their dietary saccharose with crystalline xylitol and to avoid excess saccharose-containing-foods and beverages.
Of 14 patients admitted to the test, 8 completed more than 14 days of follow up. The result was that all 8/8 experienced at least 70% regression of their lesions (improvement) with minimal antifungal therapy (1 nystatin tablet 500,000 U/per day); 5/8 had complete regression of the lesions (cure); and 6/8 decreased their salivary Candida counts by 2 logs.

C[C@@H]1[C@H](O)[C@@H](C)/C=C/C=C/C=C/C=C/C=C/C=C/C=C/[C@H](O[C@@H]2O[C@H](C)[C@@H](O)[C@H](N)[C@@H]2O)C[C@@H]2O[C@](O)(C[C@@H](O)C[C@@H](O)[C@H](O)CC[C@@H](O)C[C@@H](O)CC(=O)O[C@H]1C)C[C@H](O)[C@H]2C(=O)O [Amphotericin B]
sensitivity of the isolate [1]: sensitive

OC(Cn1cncn1)(Cn1cncn1)c1ccc(F)cc1F [Fluconazole]
follow up esophagoscopy ([2]; AIDS patient No 2, a month later, fluconazole p.o. for 15 days during xylitol trial): no lesions
MIC ([1]; Candida): > 256 µg/mL
sensitivity of the isolate [1]: resistant

O=C(CO)[C@@H](O)[C@H](O)[C@H](O)CO [fructose]
number of persons with salivary Candida growth [3]: slight increase

OC[C@H]1O[C@@](CO)(O[C@H]2O[C@H](CO)[C@@H](O)[C@H](O)[C@H]2O)[C@@H](O)[C@@H]1O [sucrose]
number of persons with salivary Candida growth [3]: slight increase

OC[C@@H](O)[C@H](O)[C@@H](O)CO [xylitol]
growth of Candida isolate compared to control without sugar [4]: inhibited in a dose dependent way
esophageal lesions ([2]; AIDS patient No 2, Candida esophagitis, two weeks after start of xylitol intake, no antifungal therapy): unchanged lesions
Sympt. score ([2]; AIDS patient No 2, day 1): 18
Weight ([2]; AIDS patient No 2, day 1): 58,5 Kg
CFU/ml saliva ([2]; AIDS patient No 2, day 7): 0 CFU/ml
Sympt. score ([2]; AIDS patient No 2, day 7): 0
Weight ([2]; AIDS patient No 2, day 7): 58,5 Kg
Sympt. score ([2]; AIDS patient No 2, day 15): 0
Weight ([2]; AIDS patient No 2, day 15): 58,5 Kg
CFU/ml saliva ([2]; AIDS patient No 2, day 15, counted at 72 hours): 3,6 × 10^3** CFU/ml
Sympt. score ([2]; AIDS patient No 2, day 22): 0
Weight ([2]; AIDS patient No 2, day 22): 57,5 Kg
CFU/ml saliva ([2]; AIDS patient No 2, day 22, counted at 72 hours, fluconazole p.o. started after two weeks): 4,5 × 10^2** CFU/ml
Sympt. score ([2]; AIDS patient No 2, day 29): 0
Weight ([2]; AIDS patient No 2, day 29): 57,2 Kg
CFU/ml saliva ([2]; AIDS patient No 2, day 29, fluconazole p.o. started after two weeks): 0 CFU/ml
Sympt. score ([2]; AIDS patient No 2, day 36): 0
Weight ([2]; AIDS patient No 2, day 36): 57,7 Kg
CFU/ml saliva ([2]; AIDS patient No 2, day 36, fluconazole p.o. 15 days given after two weeks): 0 CFU/ml
Sympt. score ([2]; AIDS patient No 2, day 50): 0
Weight ([2]; AIDS patient No 2, day 50): 56,9 Kg
CFU/ml saliva ([2]; AIDS patient No 2, day 50, fluconazole p.o. 15 days given after two weeks): 0 CFU/ml
symptom-free follow-up period ([2]; AIDS patient No. 1, about 30 g crystalline xylitol daily): 80 days
Candida counts ([2]; AIDS patient No. 1, after 2.5 months): still negative
Sympt. score ([2]; AIDS patient No. 1, day 1): 18
Weight ([2]; AIDS patient No. 1, day 1): 62 kg
CFU/mL saliva ([2]; AIDS patient No. 1, day 1, counted at 48 hours): 1×10^4 CFU/mL
Sympt. score ([2]; AIDS patient No. 1, day 8): 0
Weight ([2]; AIDS patient No. 1, day 8): 62.6 kg
CFU/mL saliva ([2]; AIDS patient No. 1, day 8, plates held for 7 days): 0** CFU/mL
Sympt. score ([2]; AIDS patient No. 1, day 18): 0
Weight ([2]; AIDS patient No. 1, day 18): 73.4 kg
CFU/mL saliva ([2]; AIDS patient No. 1, day 18, plates held for 7 days): 0** CFU/mL
Sympt. score ([2]; AIDS patient No. 1, day 29): 0
Weight ([2]; AIDS patient No. 1, day 29): 73 kg
CFU/mL saliva ([2]; AIDS patient No. 1, day 29, plates held for 7 days): 0** CFU/mL
Sympt. score ([2]; AIDS patient No. 1, day 36): 0
Weight ([2]; AIDS patient No. 1, day 36): 74.8 kg
CFU/mL saliva ([2]; AIDS patient No. 1, day 36, plates held for 7 days): 0** CFU/mL
Sympt. score ([2]; AIDS patient No. 1, day 56): 0
Weight ([2]; AIDS patient No. 1, day 56): 75 kg
CFU/mL saliva ([2]; AIDS patient No. 1, day 56, plates held for 7 days): 0** CFU/mL
Sympt. score ([2]; AIDS patient No. 1, day 80): 0
Weight ([2]; AIDS patient No. 1, day 80): 75.1 kg
CFU/mL saliva ([2]; AIDS patient No. 1, day 80, plates held for 7 days): 0** CFU/mL
Candida counts ([2]; AIDS patient No. 1, day seven): negative
weight gained ([2]; AIDS patient No. 1, follow-up of 80 days): 13.1 kilograms
time to disappearance of the lesions ([2]; AIDS patient No. 1, ketoconazole discontinued on day four): 1 week
improvement noticed by the patient ([2]; AIDS patient No. 1, on ketoconazole until day four): clear improvement on day four
time to recurrence of oral candidiasis after stopping the xylitol trial ([2]; AIDS patient No. 3): 4 days
pain symptoms (score) ([2]; AIDS patient No. 3, at start): 30
saliva counts ([2]; AIDS patient No. 3, first 17 days): diminished
pain symptoms (score) ([2]; AIDS patient No. 3, in the first 17 days, 1 nystatin troche during the first five days): 8
number of persons with salivary Candida growth [3]: significantly reduced
rank among tested compounds at reducing the growth of Candida in vitro [5]: by far the best
Candida growth and invasion compared to controls ([6]; given instead of glucose): did not increase
invasion of gastrointestinal mucosa by Candida relative to mice receiving glucose ([6]; immunocompromised mice): five times less
scores of invasion versus control mice receiving no sugar ([6]; immunocompromised mice): not significantly different
lesions and fungal cultures after 4 months of xylitol intake ([7]; 1 patient, previously fluconazole resistant isolate (E test)): without lesions and sterile fungal cultures
patients who decreased their salivary Candida counts by 2 logs ([7]; more than 14 days follow up): 6/8
patients with complete regression of the lesions (cure) ([7]; more than 14 days follow up): 5/8
patients with at least 70% regression of their lesions (improvement) ([7]; more than 14 days follow up, with minimal antifungal therapy (1 nystatin tablet 500,000 U/per day)): 8/8
time to return to baseline after returning to saccharose intake ([7]; three patients): 3 days
